According to patent publication US8431615B2, “Dose forms” (priority 2004, dated 2013):

What was measured:
HCV NS3/4A protease = HCV NS3/4A protease (Hepatitis C virus genotype 1a, UniProt P27958); assay: In vitro cleavage of TRIF by HCV NS3/4A protease; type: biochemical; settings: 10 μM VX-950, tNS3 protease 0-4 μM
Description: The 35S methionine labeled coupled in vitro transcription/translation product of TRIF protein (as a substrate) was incubated with increasing concentration of tNS3 protease enzyme ranging from 0-4 μM either in the presence (Circles) or absence (Squares) of 10 μM VX-950, followed by SDS-PAGE and exposure to phosphorimager.

WT-HCV protease-SEAP = settings: SCID mice expressing WT-HCV protease-SEAP; cited from earlier work
IFN-β promoter activity = assay: IFN-β promoter luciferase activity in Sendai virus stimulated Huh7 cells expressing HCV protease; settings: 10 μM VX-950, Sendai virus infected Huh7 cells, WT HCV protease
HCV genotype 1 = assay: Multiple-dose 14-day study, plasma HCV RNA (Roche COBAS TaqMan HCV/HPS assay); type: in vivo, human
Text: Detection of HCV RNA was done using the Roche COBAS TaqMan HCV/HPS assay, available from Roche molecular Diagnostics. Other assays are available.

[1] = tested on: AST (aspartate aminotransferase); assay: Multiple-dose 14-day study, AST; type: in vivo, human; settings: upon administration of VX-950
[2] = tested on: ALT (alanine aminotransferase); assay: Multiple-dose 14-day study, serum ALT; settings: 450 mg q8h, day 12; 5 out of 10 samples missing
neopterin = assay: Multiple-dose 14-day study, serum neopterin (competitive ELISA); settings: 750 mg q8h, day 14; baseline 10.48±0.84 nmol/l; ULN 7.7 nmol/l
[3] = in vivo
[4] = Predicted human liver exposures versus replicon assay IC50/IC90; settings: dose range studied
Text: Liver exposures to VX-950 were predicted based on the integrated preclinical and clinical data.

Sequence of HCV NS3/4A protease (P27958 1027-1208, other chains not shown): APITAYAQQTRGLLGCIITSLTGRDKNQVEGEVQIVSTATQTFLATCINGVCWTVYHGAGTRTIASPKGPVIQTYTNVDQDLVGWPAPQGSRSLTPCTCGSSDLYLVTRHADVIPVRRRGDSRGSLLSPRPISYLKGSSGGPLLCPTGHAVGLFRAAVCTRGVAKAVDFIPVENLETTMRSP

CCC[C@H](NC(=O)[C@@H]1[C@H]2CCC[C@H]2CN1C(=O)[C@@H](NC(=O)[C@@H](NC(=O)c1cnccn1)C1CCCCC1)C(C)(C)C)C(=O)C(=O)NC1CC1 [VX-950]
effect on in vitro cleavage of TRIF (HCV NS3/4A protease): inhibits in vitro cleavage of TRIF | effect on elevated ALT levels in animal model (WT-HCV protease-SEAP): ameliorates elevated ALT levels | effect on IFNβ dependent gene expression (IFN-β promoter activity): restores IFNβ dependent gene expression | Maximum change from baseline in HCV RNA (log10 IU/mL), subjects in category (HCV genotype 1; category >−1 to <0, 450 mg q8 h (n = 10)): 0 n | Maximum change from baseline in HCV RNA (log10 IU/mL), subjects in category (HCV genotype 1; category >−1 to <0, 750 mg q8 h (n = 8)): 0 n | Maximum change from baseline in HCV RNA (log10 IU/mL), subjects in category (HCV genotype 1; category >−1 to <0, 1250 mg q12 h (n = 10)): 0 n | Maximum change from baseline in HCV RNA (log10 IU/mL), subjects in category (HCV genotype 1; category >−2 to ≦−1, 450 mg q8 h (n = 10)): 0 n | Maximum change from baseline in HCV RNA (log10 IU/mL), subjects in category (HCV genotype 1; category >−2 to ≦−1, 750 mg q8 h (n = 8)): 0 n | Maximum change from baseline in HCV RNA (log10 IU/mL), subjects in category (HCV genotype 1; category >−2 to ≦−1, 1250 mg q12 h (n = 10)): 0 n | Maximum change from baseline in HCV RNA (log10 IU/mL), subjects in category (HCV genotype 1; category >−3 to ≦−2, 450 mg q8 h (n = 10)): 1 n | Maximum change from baseline in HCV RNA (log10 IU/mL), subjects in category (HCV genotype 1; category >−3 to ≦−2, 750 mg q8 h (n = 8)): 0 n | Maximum change from baseline in HCV RNA (log10 IU/mL), subjects in category (HCV genotype 1; category >−3 to ≦−2, 1250 mg q12 h (n = 10)): 1 n | Maximum change from baseline in HCV RNA (log10 IU/mL), subjects in category (HCV genotype 1; category >−4 to ≦−3, 450 mg q8 h (n = 10)): 7 n | Maximum change from baseline in HCV RNA (log10 IU/mL), subjects in category (HCV genotype 1; category >−4 to ≦−3, 750 mg q8 h (n = 8)): 3 n | Maximum change from baseline in HCV RNA (log10 IU/mL), subjects in category (HCV genotype 1; category >−4 to ≦−3, 1250 mg q12 h (n = 10)): 9 n | Maximum change from baseline in HCV RNA (log10 IU/mL), subjects in category (HCV genotype 1; category >−5 to ≦−4, 450 mg q8 h (n = 10)): 0 n | Maximum change from baseline in HCV RNA (log10 IU/mL), subjects in category (HCV genotype 1; category >−5 to ≦−4, 750 mg q8 h (n = 8)): 3 n | Maximum change from baseline in HCV RNA (log10 IU/mL), subjects in category (HCV genotype 1; category >−5 to ≦−4, 1250 mg q12 h (n = 10)): 0 n | Maximum change from baseline in HCV RNA (log10 IU/mL), subjects in category (HCV genotype 1; category ≧−5, 450 mg q8 h (n = 10)): 2 n | Maximum change from baseline in HCV RNA (log10 IU/mL), subjects in category (HCV genotype 1; category ≧−5, 750 mg q8 h (n = 8)): 2 n | Maximum change from baseline in HCV RNA (log10 IU/mL), subjects in category (HCV genotype 1; category ≧−5, 1250 mg q12 h (n = 10)): 0 n | drop in viral load, every patient (HCV genotype 1; during administration, all dose groups): > 2 log10 | subjects with a 3 log10 reduction in HCV-RNA (HCV genotype 1; within the first three days, of the 28 subjects receiving VX-950): 26 | effect on AST levels [1]: decreased | ALT level, median [2]: 38 U/l | ALT level, range [2]: 25-125 U/l | mean neopterin (neopterin): 7.32 ± 0.48 nmol/L | severe (grade 3 or grade 4) adverse events [3]: No adverse events were considered to be severe | predicted average liver concentration as multiple of the replicon assay IC50 [4]: up to 113 fold | predicted average liver concentration as multiple of the replicon assay IC90 [4]: up to 57 fold
